# Experimental data: PubChem BioAssay (NCI)
#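 Step 1: Grow cells in 96-well plates. Step 2: Expose to compound for 48 hours at 5 concentrations. Step 3: Interpolate endpoints linearly; if unreached, use highest concentration. The concentration for 50% growth inhibition is given as GI50. At the TGI there is no net growth.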
# System: SN12C renal
# Assay: NCI tumour cell line growth inhibition, 48 h
SMILES,TGI [µM],GI50 [µM]
CCc1cccc(C)c1NC(=O)CC1C(=O)Nc2ccccc2S1=O (centres undefined),> 100,–
Cc1ccc(N2C(=O)N(c3ccc(C)cc3)C3(SC=NN3C)C2=O)cc1 (centres undefined),> 100,–
O=C1c2ccc3c4ccccc4n(-c4ccccc4)c3c2C(=O)N1c1ccc(Cl)cc1,> 100,–
Cc1ccc2c(c1-c1ccccc1)C(=O)OC2,> 100,–
CCC[CH2][Sn]1([CH2]CCC)[O]CC(COc2c(Cl)cc(Cl)cc2Cl)[O]1 (centres undefined),3.27,1.75
NC(CCc1ncc(C(=O)O)s1)C(=O)O (centres undefined),> 100,–
CSc1ccc2c(cc1=O)[C@@H](NC(=O)c1cc(O)c(O)c(O)c1)CCc1cc(O)c(O)c(O)c1-2,34.5,–
COc1cc(-c2nnc3n2NC=C(C(=O)O)S3)cc(OC)c1OC,> 100,–
C[P+](C)(C)c1ccccc1,> 100,–
O=C1c2ccccc2C(=O)N1C/C=N/NS(=O)(=O)c1ccc(Br)cc1,> 100,–
COc1ccc(-c2noc(N)c2-c2cc(OC)c3c(c2)OCO3)cc1,> 100,4.14
NC(=O)c1cn(Cc2ccccc2)c(=O)n1Cc1ccccc1,> 100,–
Cc1c(Cl)cccc1NC(=O)c1cccc([N+](=O)[O-])c1O,97.4,–
CC1COS(=O)O1 (centres undefined),> 100,–
CC1CCC(C(C)(C)c2ccccc2)C(=O)C1 (centres undefined),> 100,–
O=C1CC2CCN(C(=O)c3ccccc3)CC2CCN1 (centres undefined),> 100,–
O=C1C=CC(=CC=C2C=CN(CCCCCCCCCCC(=O)NCCCCCCCCCCCC(=O)O)C=C2)C=C1,> 100,–
N#Cc1c(-c2ccco2)cc(-c2ccc(N)cc2)[nH]c1=O,> 100,–
C=CCC1(C)CCCCC1(O)CS(=O)c1ccccc1 (centres undefined),> 100,–
C1COCCSC2=C(SCCO1)SC(=C1SC3=C(SCCOCCOCCS3)S1)S2,> 100,–
COc1cc(/C=N\O[Si](C)(C)C(C)(C)C)ccc1O[Si](C)(C)C(C)(C)C,> 100,–
CC12CCC(=O)N1c1cccnc1N2 (centres undefined),> 100,–
COc1cc2c(cc1OC)C1Cc3cc(OC)c(OC)cc3N1CC2 (centres undefined),> 100,–
O=C1C2[C@@H](C(=O)N1c1ccc(Br)cc1)C13C(=CC2([N+](=O)[O-])[C@@H]2C(=O)N(c4ccc(Br)cc4)C(=O)[C@@H]21)c1ccccc1N3c1ccccc1 (some centres undefined),> 100,–
CCOC(=O)C1=C(Nc2ccc(Br)cc2)OCC1=O,> 100,–
CCOc1ccc(N=Cc2c3ccccc3nc3ccccc23)cc1,> 100,–
Nc1ccc(C2=N/C(=C\c3cccc(N)c3)C(=O)O2)cc1,> 100,–
CC(=O)[CH-]C(=O)c1ccccc1.CC(=O)[CH-]C(=O)c1ccccc1.O=S(=O)([O-])c1cc([O-])c2c([O-])cc(S(=O)(=O)[O-])cc2c1.[Na+].[Ti+4],> 100,> 100
NCCN.O=C([O-])[O-].O=C([O-])[O-].[Co+3].[K+],> 100,> 100
C1=NC(N(Cc2ccccc2)Cc2ccccc2)N(Cc2ccccc2)N1 (centres undefined),34.1,–

# System: SF-295 CNS
# Assay: NCI tumour cell line growth inhibition, 48 h
SMILES,TGI [µM],GI50 [µM]
CCc1cccc(C)c1NC(=O)CC1C(=O)Nc2ccccc2S1=O (centres undefined),97.6,–
Cc1ccc(N2C(=O)N(c3ccc(C)cc3)C3(SC=NN3C)C2=O)cc1 (centres undefined),> 100,–
O=C1c2ccc3c4ccccc4n(-c4ccccc4)c3c2C(=O)N1c1ccc(Cl)cc1,> 100,–
CCC[CH2][Sn]1([CH2]CCC)[O]CC(COc2c(Cl)cc(Cl)cc2Cl)[O]1 (centres undefined),3.37,1.9
NC(CCc1ncc(C(=O)O)s1)C(=O)O (centres undefined),> 100,–
CSc1ccc2c(cc1=O)[C@@H](NC(=O)c1cc(O)c(O)c(O)c1)CCc1cc(O)c(O)c(O)c1-2,43.6,–
COc1cc(-c2nnc3n2NC=C(C(=O)O)S3)cc(OC)c1OC,> 100,–
C[P+](C)(C)c1ccccc1,> 100,–
O=C1c2ccccc2C(=O)N1C/C=N/NS(=O)(=O)c1ccc(Br)cc1,> 100,–
COc1ccc(-c2noc(N)c2-c2cc(OC)c3c(c2)OCO3)cc1,28.6,2.64
NC(=O)c1cn(Cc2ccccc2)c(=O)n1Cc1ccccc1,> 100,–
CCOC(=O)C(C)(c1c(C)[nH]c2ccccc12)c1c(C)[nH]c2ccccc12,29,–
Cc1c(Cl)cccc1NC(=O)c1cccc([N+](=O)[O-])c1O,65,–
CC1COS(=O)O1 (centres undefined),> 100,–
CC1CCC(C(C)(C)c2ccccc2)C(=O)C1 (centres undefined),> 100,–
O=C1CC2CCN(C(=O)c3ccccc3)CC2CCN1 (centres undefined),> 100,–

SMILES,TGI [µM],GI50 [µM]
O=C1C=CC(=CC=C2C=CN(CCCCCCCCCCC(=O)NCCCCCCCCCCCC(=O)O)C=C2)C=C1,> 100,–
N#Cc1c(-c2ccco2)cc(-c2ccc(N)cc2)[nH]c1=O,> 100,–
C=CCC1(C)CCCCC1(O)CS(=O)c1ccccc1 (centres undefined),> 100,–
C1COCCSC2=C(SCCO1)SC(=C1SC3=C(SCCOCCOCCS3)S1)S2,> 100,–
COc1cc(/C=N\O[Si](C)(C)C(C)(C)C)ccc1O[Si](C)(C)C(C)(C)C,> 100,–
CC12CCC(=O)N1c1cccnc1N2 (centres undefined),> 100,–
COc1cc2c(cc1OC)C1Cc3cc(OC)c(OC)cc3N1CC2 (centres undefined),> 100,–
O=C1C2[C@@H](C(=O)N1c1ccc(Br)cc1)C13C(=CC2([N+](=O)[O-])[C@@H]2C(=O)N(c4ccc(Br)cc4)C(=O)[C@@H]21)c1ccccc1N3c1ccccc1 (some centres undefined),> 100,–
CCOC(=O)C1=C(Nc2ccc(Br)cc2)OCC1=O,> 100,–
CCOc1ccc(N=Cc2c3ccccc3nc3ccccc23)cc1,> 100,–
Nc1ccc(C2=N/C(=C\c3cccc(N)c3)C(=O)O2)cc1,> 100,–
CC(=O)[CH-]C(=O)c1ccccc1.CC(=O)[CH-]C(=O)c1ccccc1.O=S(=O)([O-])c1cc([O-])c2c([O-])cc(S(=O)(=O)[O-])cc2c1.[Na+].[Ti+4],> 100,55.7
Cc1cc(NCCCCNc2ccnc3cc(Cl)ccc23)nc(Nc2ccc(C(=O)N3CCCCC3)cc2)n1,3.25,1.67
NCCN.O=C([O-])[O-].O=C([O-])[O-].[Co+3].[K+],> 100,> 100
C1=NC(N(Cc2ccccc2)Cc2ccccc2)N(Cc2ccccc2)N1 (centres undefined),29.6,–

# System: SNB-19 CNS
# Assay: NCI tumour cell line growth inhibition, 48 h
SMILES,TGI [µM],GI50 [µM]
CCc1cccc(C)c1NC(=O)CC1C(=O)Nc2ccccc2S1=O (centres undefined),> 100,–
Cc1ccc(N2C(=O)N(c3ccc(C)cc3)C3(SC=NN3C)C2=O)cc1 (centres undefined),> 100,–
O=C1c2ccc3c4ccccc4n(-c4ccccc4)c3c2C(=O)N1c1ccc(Cl)cc1,> 100,–
Cc1ccc2c(c1-c1ccccc1)C(=O)OC2,> 100,–
CCC[CH2][Sn]1([CH2]CCC)[O]CC(COc2c(Cl)cc(Cl)cc2Cl)[O]1 (centres undefined),2.64,1.35
CSc1ccc2c(cc1=O)[C@@H](NC(=O)c1cc(O)c(O)c(O)c1)CCc1cc(O)c(O)c(O)c1-2,> 100,–
COc1cc(-c2nnc3n2NC=C(C(=O)O)S3)cc(OC)c1OC,> 100,–
C[P+](C)(C)c1ccccc1,> 100,–
